Assay: xn = mol fraction of the nth substance listed
Conditions: Fluid (supercritical or subcritical phases), Vibrating tube method

c1ccc2ccccc2c1 [naphthalene] + O=C=O
Conditions | mass density [kg/m3]
318.11 K, 16084 kPa, x1 = 0.0093 | 785.19
318.11 K, 16667 kPa, x1 = 0.0065 | 790.99
318.11 K, 16960 kPa, x1 = 0.0093 | 796.88
318.11 K, 17000 kPa, x1 = 0.0049 | 787.78
318.11 K, 17635 kPa, x1 = 0.0065 | 803.78
318.11 K, 17984 kPa, x1 = 0.0093 | 809.07
318.11 K, 17995 kPa, x1 = 0.0049 | 800.44
318.11 K, 18460 kPa, x1 = 0.0065 | 812.58
318.11 K, 18977 kPa, x1 = 0.0049 | 811.61
318.11 K, 18989 kPa, x1 = 0.0093 | 819.91
318.11 K, 19176 kPa, x1 = 0.0065 | 820.58
318.11 K, 19789 kPa, x1 = 0.0093 | 827.92
318.11 K, 19904 kPa, x1 = 0.0065 | 827.96
318.11 K, 20045 kPa, x1 = 0.0049 | 822.71
318.11 K, 20953 kPa, x1 = 0.0093 | 838.54
318.11 K, 20963 kPa, x1 = 0.0049 | 831.61
318.11 K, 21000 kPa, x1 = 0.0065 | 838.23
318.11 K, 21926 kPa, x1 = 0.0065 | 846.14
318.11 K, 22004 kPa, x1 = 0.0049 | 840.84
318.11 K, 22031 kPa, x1 = 0.0093 | 847.64
318.11 K, 22694 kPa, x1 = 0.0093 | 852.96
318.11 K, 22962 kPa, x1 = 0.0049 | 848.85
318.11 K, 22968 kPa, x1 = 0.0065 | 854.56
318.11 K, 23517 kPa, x1 = 0.0093 | 859.24
318.11 K, 23867 kPa, x1 = 0.0065 | 861.51
318.11 K, 24017 kPa, x1 = 0.0049 | 857.07
318.11 K, 24931 kPa, x1 = 0.0093 | 869.34
318.11 K, 24993 kPa, x1 = 0.0065 | 869.51
318.13 K, 9447 kPa, x1 = 0.0038 | 467.84
318.13 K, 9511 kPa, x1 = 0.0038 | 479.86
318.13 K, 9624 kPa, x1 = 0.0038 | 500.05
318.13 K, 9723 kPa, x1 = 0.0038 | 516.4
318.13 K, 9815 kPa, x1 = 0.0038 | 530.29
318.13 K, 10026 kPa, x1 = 0.0038 | 558.2
318.13 K, 11028 kPa, x1 = 0.0038 | 638.56
318.13 K, 12034 kPa, x1 = 0.0038 | 682.9
318.13 K, 13013 kPa, x1 = 0.0038 | 712.68
318.13 K, 14016 kPa, x1 = 0.0038 | 736.26
318.13 K, 15020 kPa, x1 = 0.0038 | 755.47
318.13 K, 15435 kPa, x1 = 0.0214 | 798.75
318.13 K, 15510 kPa, x1 = 0.0214 | 799.63
318.13 K, 15611 kPa, x1 = 0.0214 | 800.92
318.13 K, 15832 kPa, x1 = 0.0214 | 803.59
318.13 K, 16002 kPa, x1 = 0.0038 | 771.53
318.13 K, 16016 kPa, x1 = 0.0214 | 805.76
318.13 K, 16531 kPa, x1 = 0.0214 | 811.8
318.13 K, 16555 kPa, x1 = 0.0204 | 810.95
318.13 K, 17029 kPa, x1 = 0.0214 | 817.29
318.13 K, 17033 kPa, x1 = 0.0038 | 786.19
318.13 K, 17049 kPa, x1 = 0.0204 | 816.49
318.13 K, 17588 kPa, x1 = 0.0204 | 822.21
318.13 K, 18000 kPa, x1 = 0.0214 | 827.3
318.13 K, 18021 kPa, x1 = 0.0038 | 798.72
318.13 K, 18067 kPa, x1 = 0.0204 | 827.01
318.13 K, 18584 kPa, x1 = 0.0204 | 832.05
318.13 K, 19038 kPa, x1 = 0.0038 | 810.39
318.13 K, 19046 kPa, x1 = 0.0214 | 837.22
318.13 K, 19123 kPa, x1 = 0.0204 | 837.04
318.13 K, 19537 kPa, x1 = 0.0204 | 840.73
318.13 K, 20002 kPa, x1 = 0.0038 | 820.43
318.13 K, 20016 kPa, x1 = 0.0214 | 845.63
318.13 K, 20055 kPa, x1 = 0.0204 | 845.16
318.13 K, 20564 kPa, x1 = 0.0204 | 849.36
318.13 K, 21012 kPa, x1 = 0.0214 | 853.76
318.13 K, 21027 kPa, x1 = 0.0038 | 830.26
318.13 K, 21058 kPa, x1 = 0.0204 | 853.31
318.13 K, 21568 kPa, x1 = 0.0204 | 857.24
318.13 K, 22015 kPa, x1 = 0.0038 | 839.08
318.13 K, 22015 kPa, x1 = 0.0214 | 861.35
318.13 K, 22022 kPa, x1 = 0.0204 | 860.61
318.13 K, 22506 kPa, x1 = 0.0204 | 864.13
318.13 K, 23014 kPa, x1 = 0.0038 | 847.4
318.13 K, 24022 kPa, x1 = 0.0038 | 855.31
318.13 K, 25018 kPa, x1 = 0.0038 | 862.63
318.14 K, 19647 kPa, x1 = 0.0237 | 845.05
318.14 K, 19720 kPa, x1 = 0.0237 | 845.71
318.14 K, 19769 kPa, x1 = 0.0237 | 846.15
318.14 K, 19815 kPa, x1 = 0.0237 | 846.6
318.14 K, 19868 kPa, x1 = 0.0237 | 847.1
318.14 K, 19940 kPa, x1 = 0.0237 | 847.81
318.14 K, 20042 kPa, x1 = 0.0237 | 848.76
318.14 K, 20202 kPa, x1 = 0.0237 | 850.16
318.14 K, 20409 kPa, x1 = 0.0237 | 851.93
318.14 K, 20762 kPa, x1 = 0.0237 | 854.79
318.14 K, 21268 kPa, x1 = 0.0237 | 858.75
318.14 K, 21759 kPa, x1 = 0.0237 | 862.5
318.14 K, 22256 kPa, x1 = 0.0237 | 866.12
318.14 K, 22769 kPa, x1 = 0.0237 | 869.73
318.14 K, 23308 kPa, x1 = 0.0237 | 873.42
318.14 K, 23561 kPa, x1 = 0.0237 | 875.25
323.03 K, 14061 kPa, x1 = 0.0198 | 735.87
323.03 K, 14281 kPa, x1 = 0.0198 | 740.33
323.03 K, 14482 kPa, x1 = 0.0198 | 744.21
323.03 K, 15014 kPa, x1 = 0.0198 | 753.86
323.03 K, 16032 kPa, x1 = 0.0198 | 770.24
323.03 K, 17031 kPa, x1 = 0.0198 | 784.26
323.03 K, 18075 kPa, x1 = 0.0198 | 797.2
323.03 K, 19028 kPa, x1 = 0.0198 | 807.85
323.03 K, 20080 kPa, x1 = 0.0198 | 818.58
323.03 K, 21050 kPa, x1 = 0.0198 | 827.65
323.03 K, 22246 kPa, x1 = 0.0198 | 838
323.03 K, 24029 kPa, x1 = 0.0198 | 851.96
323.03 K, 24780 kPa, x1 = 0.0198 | 857.36
323.06 K, 16579 kPa, x1 = 0.0276 | 788.12
323.06 K, 16788 kPa, x1 = 0.0276 | 790.83
323.06 K, 17004 kPa, x1 = 0.0276 | 793.51
323.06 K, 17203 kPa, x1 = 0.0276 | 795.99
323.06 K, 17382 kPa, x1 = 0.0276 | 798.16
323.06 K, 17590 kPa, x1 = 0.0276 | 800.59
323.06 K, 17798 kPa, x1 = 0.0276 | 803
323.06 K, 18018 kPa, x1 = 0.0276 | 805.49
323.06 K, 18224 kPa, x1 = 0.0276 | 807.76
323.06 K, 18490 kPa, x1 = 0.0276 | 810.6
323.06 K, 18694 kPa, x1 = 0.0276 | 812.78
323.06 K, 19009 kPa, x1 = 0.0276 | 816
323.06 K, 19476 kPa, x1 = 0.0276 | 820.59
323.06 K, 19995 kPa, x1 = 0.0276 | 825.42
323.06 K, 21006 kPa, x1 = 0.0276 | 834.34
323.06 K, 22002 kPa, x1 = 0.0276 | 842.55
323.06 K, 22987 kPa, x1 = 0.0276 | 850.05
323.06 K, 24002 kPa, x1 = 0.0276 | 857.32
323.06 K, 24701 kPa, x1 = 0.0276 | 862.06
323.07 K, 10356 kPa, x1 = 0.0049 | 477.23
323.07 K, 10584 kPa, x1 = 0.0049 | 504.85
323.07 K, 11014 kPa, x1 = 0.0049 | 548.62
323.07 K, 11189 kPa, x1 = 0.0093 | 594.87
323.07 K, 11528 kPa, x1 = 0.0093 | 616.57
323.07 K, 12026 kPa, x1 = 0.0093 | 642.38
323.07 K, 12054 kPa, x1 = 0.0049 | 619.66
323.07 K, 12157 kPa, x1 = 0.0144 | 663.68
323.07 K, 12308 kPa, x1 = 0.0144 | 669.44
323.07 K, 12400 kPa, x1 = 0.0144 | 672.76
323.07 K, 12573 kPa, x1 = 0.0144 | 678.74
323.07 K, 12986 kPa, x1 = 0.0144 | 691.87
323.07 K, 12997 kPa, x1 = 0.0049 | 660.38
323.07 K, 13031 kPa, x1 = 0.0093 | 680.85
323.07 K, 13495 kPa, x1 = 0.0144 | 706.09
323.07 K, 14001 kPa, x1 = 0.0093 | 708.22
323.07 K, 14001 kPa, x1 = 0.0144 | 718.59
323.07 K, 14013 kPa, x1 = 0.0049 | 692.38
323.07 K, 14975 kPa, x1 = 0.0093 | 730.03
323.07 K, 15034 kPa, x1 = 0.0049 | 717.29
323.07 K, 15051 kPa, x1 = 0.0144 | 740.61
323.07 K, 15260 kPa, x1 = 0.0235 | 764.21
323.07 K, 15541 kPa, x1 = 0.0235 | 768.75
323.07 K, 15987 kPa, x1 = 0.0049 | 736.48
323.07 K, 15999 kPa, x1 = 0.0144 | 757.24
323.07 K, 16027 kPa, x1 = 0.0235 | 776.04
323.07 K, 16061 kPa, x1 = 0.0093 | 750.23
323.07 K, 16993 kPa, x1 = 0.0093 | 765.16
323.07 K, 17000 kPa, x1 = 0.0144 | 772.5
323.07 K, 17006 kPa, x1 = 0.0049 | 753.98
323.07 K, 17013 kPa, x1 = 0.0235 | 790.56
323.07 K, 18007 kPa, x1 = 0.0235 | 801.9
323.07 K, 18016 kPa, x1 = 0.0049 | 769.15
323.07 K, 18016 kPa, x1 = 0.0144 | 786.14
323.07 K, 18045 kPa, x1 = 0.0093 | 779.85
323.07 K, 18986 kPa, x1 = 0.0049 | 782.09
323.07 K, 18996 kPa, x1 = 0.0144 | 797.91
323.07 K, 19008 kPa, x1 = 0.0235 | 812.85
323.07 K, 19015 kPa, x1 = 0.0093 | 791.95
323.07 K, 19996 kPa, x1 = 0.0093 | 803.09
323.07 K, 20004 kPa, x1 = 0.0049 | 794.32
323.07 K, 20013 kPa, x1 = 0.0144 | 809.02
323.07 K, 20026 kPa, x1 = 0.0235 | 822.87
323.07 K, 20987 kPa, x1 = 0.0049 | 805.12
323.07 K, 20996 kPa, x1 = 0.0235 | 831.78
323.07 K, 21016 kPa, x1 = 0.0093 | 813.7
323.07 K, 21017 kPa, x1 = 0.0144 | 819.02
